Source: patent publication US20240092835A1, “NOVEL PEPTIDES CAPABLE OF ALTERING NK CELL ACTIVITY” (Massachusetts Institute of Technology, priority 2022, published 2024)

Tests used:
[1] = tested on: NKG2A+/NKG2C− NK cells; assay: NK cell activation markers in NKG2A+/NKG2C- NK cells incubated with peptide and K562 expressing HLA-E (inhibition); assay type: cell-based, human; conditions: for percentage of CCL3+ NK cells / percentage of CD107a+ NK cells / percentage of IFNG+ NK cells / percentage of TNF+ NK cells: NKG2A+/NKG2C- NK cells, K562/HLA-E
How it was run: (§1)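 K562 + HLA-E, pulsed with human/CMV proteome peptides → incubated with sorted NK subsets → surface marker staining, % positive cells. Increase = activation; decrease = inhibition.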

[2] = tested on: NKG2A−/NKG2C+ NK cells; assay: NK cell activation markers in NKG2A-/NKG2C+ NK cells incubated with peptide and K562 expressing HLA-E (activation); assay type: cell-based, human; conditions: for percentage of CCL3+ NK cells / percentage of CD107+ NK cells / percentage of IFNG+ NK cells / percentage of TNF+ NK cells: NKG2A-/NKG2C+ NK cells, K562/HLA-E
How it was run: as §1

[3] = tested on: NKG2A−/NKG2C− NK cells; assay: NK cell activation markers in control NKG2A-/NKG2C- NK cells incubated with peptide and K562 expressing HLA-E; assay type: cell-based, human
How it was run: as §1

[4] = tested on: NKG2A−/NKG2C+ NK cells; assay: NKG2A-/NKG2C+ NK cell activation with peptide and RMA-S cells expressing HLA-E; assay type: cell-based; conditions: RMA-S cells expressing HLA-E
Description: An antigen processing-defective lymphoma cell line (RMA-S), with a low-level expression of HLA-E, were incubated with the novel peptides to determine the inhibitory strength on NKG2A−/NKG2C+NK cells relative to positive control sequences with differential effects ([…] (SEQ ID NO: 19)/VMAPRTLFL (SEQ ID NO: 18)). The effects of the peptides on NK cell inhibition were determined by measuring four markers of NK cell activation (CD107a, IFNG, TNF, CCL3) in NKG2A−/NKG2C+NK cells (FIGS. 2A-2D). Activation was indicated by an increase in percent cells positive for cell surface markers.

[5] = biological target: T1, HLA-E (Homo sapiens, UniProt P13747); assay: HLA-E surface stabilization assay with RMA-S/HLA-E cells; assay type: cell-based; conditions: 30 μM peptide, 16 hours; for HLA-E surface expression stability (GeoMFI): anti-HLA-E antibody
T1 construct: expressed in transfected cells; host or cells: RMA-S/HLA-E cells (antigen processing-defective lymphoma cell line)
Description: HLA-E surface expression was assessed by measuring geometric mean fluorescence intensity (GeoMFI) in RMA-S cells following immunofluorescence staining with an anti-HLA-E antibody (Table 14). Increased GeoMFI was indicative of increased HLA-E surface expression stability following novel peptide exposures (FIG. 3).

[6] = K562 expressing HLA-E, CD107a, IFNG, TNF, CCL3

T1 sequence (P13747 22-358): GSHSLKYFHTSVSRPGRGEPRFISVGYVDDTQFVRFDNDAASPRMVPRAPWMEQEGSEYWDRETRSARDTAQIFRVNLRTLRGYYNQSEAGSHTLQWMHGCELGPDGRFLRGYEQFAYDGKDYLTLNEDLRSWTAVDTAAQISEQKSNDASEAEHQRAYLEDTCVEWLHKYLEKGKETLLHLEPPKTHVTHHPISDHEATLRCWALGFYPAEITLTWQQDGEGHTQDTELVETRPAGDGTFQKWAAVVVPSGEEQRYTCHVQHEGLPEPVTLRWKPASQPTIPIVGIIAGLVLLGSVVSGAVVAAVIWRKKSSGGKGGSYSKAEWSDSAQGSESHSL
T1 sequence (P61769 21-119 partner): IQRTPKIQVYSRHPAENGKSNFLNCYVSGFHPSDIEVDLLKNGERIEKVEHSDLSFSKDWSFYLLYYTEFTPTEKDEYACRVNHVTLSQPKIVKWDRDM

NMPARTVLF [human14, peptide MTREX 490-498 derived from the human proteome]
effect on NKG2A+/NKG2C− NK cell inhibition (in words) [1, 6]: strong inhibitory
percentage of CCL3+ NK cells ([1]; Trial 1): 3.55%
percentage of CD107a+ NK cells ([1]; Trial 1): 1.54%
percentage of IFNG+ NK cells ([1]; Trial 1): 0.3%
percentage of TNF+ NK cells ([1]; Trial 1): 0.12%
percentage of CCL3+ NK cells ([1]; Trial 2): 6.94%
percentage of CD107a+ NK cells ([1]; Trial 2): 2.38%
percentage of IFNG+ NK cells ([1]; Trial 2): 0.79%
percentage of TNF+ NK cells ([1]; Trial 2): 0.31%
percentage of CCL3+ NK cells ([1]; Trial 3): 6.08%
percentage of CD107a+ NK cells ([1]; Trial 3): 3.66%
percentage of IFNG+ NK cells ([1]; Trial 3): 2.62%
percentage of TNF+ NK cells ([1]; Trial 3): 1.09%
percentage of CCL3+ NK cells ([1]; Trial 4): 3.51%
percentage of CD107a+ NK cells ([1]; Trial 4): 2.52%
percentage of IFNG+ NK cells ([1]; Trial 4): 0.83%
percentage of TNF+ NK cells ([1]; Trial 4): 0.55%
percentage of CCL3+ NK cells ([1]; Trial 5): 17%
percentage of CD107a+ NK cells ([1]; Trial 5): 4.05%
percentage of IFNG+ NK cells ([1]; Trial 5): 2.12%
percentage of TNF+ NK cells ([1]; Trial 5): 0.89%
percentage of CCL3+ NK cells ([1]; Trial 6): 2.66%
percentage of CD107a+ NK cells ([1]; Trial 6): 1.16%
percentage of IFNG+ NK cells ([1]; Trial 6): 0.43%
percentage of TNF+ NK cells ([1]; Trial 6): 0.14%
effect on NKG2A−/NKG2C+ NK cell activation (in words) [2, 6]: strong inhibitory and activating effects
percentage of CCL3+ NK cells ([2]; Trial 1): 70.6%
percentage of CD107+ NK cells ([2]; Trial 1): 61.3%
percentage of IFNG+ NK cells ([2]; Trial 1): 45.6%
percentage of TNF+ NK cells ([2]; Trial 1): 31.9%
percentage of CCL3+ NK cells ([2]; Trial 2): 87.5%
percentage of CD107+ NK cells ([2]; Trial 2): 83.1%
percentage of IFNG+ NK cells ([2]; Trial 2): 72.7%
percentage of TNF+ NK cells ([2]; Trial 2): 65.1%
percentage of CCL3+ NK cells ([2]; Trial 3): 82.5%
percentage of CD107+ NK cells ([2]; Trial 3): 85%
percentage of IFNG+ NK cells ([2]; Trial 3): 74.2%
percentage of TNF+ NK cells ([2]; Trial 3): 65%
percentage of CCL3+ NK cells ([2]; Trial 4): 61.1%
percentage of CD107+ NK cells ([2]; Trial 4): 59.1%
percentage of IFNG+ NK cells ([2]; Trial 4): 47.5%
percentage of TNF+ NK cells ([2]; Trial 4): 40%
percentage of CCL3+ NK cells ([2]; Trial 5): 71.8%
percentage of CD107+ NK cells ([2]; Trial 5): 70.5%
percentage of IFNG+ NK cells ([2]; Trial 5): 61.9%
percentage of TNF+ NK cells ([2]; Trial 5): 57.9%
percentage of CCL3+ NK cells ([2]; Trial 6): 52.1%
percentage of CD107+ NK cells ([2]; Trial 6): 44.3%
percentage of IFNG+ NK cells ([2]; Trial 6): 30.5%
percentage of TNF+ NK cells ([2]; Trial 6): 21.8%
percentage CCL3+ NK cells ([3]; Trial 1): 29.3%
percentage CD107+ NK cells ([3]; Trial 1): 20.9%
percentage TNF+ NK cells ([3]; Trial 1): 2.61%
percentage of IFNG+ NK cells ([3]; Trial 1): 12.1%
percentage CCL3+ NK cells ([3]; Trial 2): 54.7%
percentage CD107+ NK cells ([3]; Trial 2): 31.4%
percentage TNF+ NK cells ([3]; Trial 2): 9.25%
percentage of IFNG+ NK cells ([3]; Trial 2): 27.7%
percentage CCL3+ NK cells ([3]; Trial 3): 44%
percentage CD107+ NK cells ([3]; Trial 3): 43.7%
percentage TNF+ NK cells ([3]; Trial 3): 17.1%
percentage of IFNG+ NK cells ([3]; Trial 3): 36.5%
percentage CCL3+ NK cells ([3]; Trial 4): 29.2%
percentage CD107+ NK cells ([3]; Trial 4): 25.6%
percentage TNF+ NK cells ([3]; Trial 4): 8.96%
percentage of IFNG+ NK cells ([3]; Trial 4): 17.5%
percentage CCL3+ NK cells ([3]; Trial 5): 26.9%
percentage CD107+ NK cells ([3]; Trial 5): 21.8%
percentage TNF+ NK cells ([3]; Trial 5): 7.19%
percentage of IFNG+ NK cells ([3]; Trial 5): 16.7%
percentage CCL3+ NK cells ([3]; Trial 6): 20.9%
percentage CD107+ NK cells ([3]; Trial 6): 16.7%
percentage TNF+ NK cells ([3]; Trial 6): 2.97%
percentage of IFNG+ NK cells ([3]; Trial 6): 7.36%
NKG2A−/NKG2C+ NK cell activation relative to positive control peptides (in words) [4]: decreased NK cell activation relative to the positive control peptides
HLA-E surface expression stability (GeoMFI) ([5]; Trial 1): 1304 GeoMFI
HLA-E surface expression stability (GeoMFI) ([5]; Trial 2): 1364 GeoMFI
HLA-E surface expression stability (GeoMFI) ([5]; Trial 3): 1005 GeoMFI
HLA-E surface expression stability (GeoMFI) ([5]; Trial 4): 1738 GeoMFI
HLA-E surface expression stabilization strength, approximate GeoMFI ([5]; approximate value): approximately 1×10^3 GeoMFI
